Patent US20100113613A1, “CYCLOHEXANE POLYALCOHOL FORMULATION FOR TREATMENT OF DISORDERS OF PROTEIN AGGREGATION” (WARATAH PHARMACEUTICALS, priority 2006, published 2010)

Experiments:
[1] = Brain and CSF levels of inositols after one month ad libitum dosing (GC/MS), Example 2; assay type: in vivo, TgCRND8 mice; details: mouse, in vivo
Protocol: Study drugs were administered either at 30 mg/kg by oral gavage, or ad libitum by dissolution in drinking water. For administration in drinking water, study drugs were dissolved at 10 mg/ml. The average amount of water taken from the bottle was 3 ml daily per animal. The average mouse weight was 33 g. […] Quantification of scyllo-cyclohexanehexyl and myo-inositol. Scyllo-cyclohexanehexyl and myo-cyclohexanehexyl levels in the brain and CSF were analyzed using gas chromatography/mass spectrometry. D-chiro-inositol was used as an internal control, as it is not present in these biological samples. Derivatization: To increase the volatility and thermal stability of these compounds and to allow for proper peak separation, these samples need to first be derivatized. The derivatization was adapted from a method presented previously (Shetty, H U, et al, 1995, Anal. Biochem. 224:279-85), where the hydroxyl groups of the cyclohexanehexyl were replaced with acetyl groups. […] Similarly, a 5-15 μl sample of CSF was mixed with 1 ml of methanol and allowed to stand at room temperature for 5 minutes. The resulting suspension was centrifuged (5 min, 5000×g) and the supernatant transferred to a glass tube (Teflon-lined cap). […] These samples were then evaporated to complete dryness (Speedvac; 60° C.). […] This mixture was flushed with dry nitrogen, securely capped and the tubes heated (80° C.; 30 min). Following derivatization, samples were cooled (RT) and the unreacted acetylating reagent evaporated using a steady stream of nitrogen gas. The derivatized products were re-dissolved (4 ml; hexane-ethyl acetate (80:20, v/v)) and washed with 1 ml of 5% sodium hydrogencarbonate solution. […] The residue was reconstituted in 100 μl; ethyl acetate. 1 μL of this was injected into the GC/MS system. A similar procedure was followed using stock concentrations of scyllo- and myo-cyclohexanehexols, which were then used to generate concentration curves (in this case the internal standard was derivatized separately and then added). GC/MS was performed using a Perkin Elmer TurboMass Autosystem XL, with a quadrupole mass spectrometer and electron ionization. Gas chromatography was performed using a 30 m×0.25 mm×0.25 μm ZB 5 (5% diphenyl/95% dimethylpolysiloxane) column, using the carrier gas Helium (1 ml/min). Samples were injected with the split set to 50 at 1 min and 0 at 5 min, the injector temperature was set at 300° C. and an initial oven temperature of 80° C. After a hold of 1 min, the temperature was ramped at 45° C./min to 187° C. and held there for 15 min. […] Sample peaks were analyzed using selected-ion monitoring, using m/z 168 for determining cyclohexanehexyl levels in the brain and CSF and m/z 373 for determining cyclohexanehexyl levels in plasma, as monitoring the larger ion reduced noise. […]

[2] = target: T1, Aβ42 (Homo sapiens, UniProt P05067); experiment: TgCRND8 dose response, dosed 5-6 months once daily: Aβ42 in brain homogenates by ELISA; assay type: in vivo; details: CRND8 mice 5-6 months, oral
T1 construct: from tissue; host or cells: brain homogenate (and plasma) of TgCRND8 transgenic mice
T1 sequence (P05067 672-713): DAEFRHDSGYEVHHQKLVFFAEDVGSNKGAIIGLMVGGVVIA
Protocol: Dose response was further examined in animals dosed from 5-6 months of age. Disease is more advanced at this later time point, so there may be greater clinical relevance. The dose levels investigated were 5, 10 and 30 mg/kg or vehicle, once daily. Accumulation of Aβ42 was assessed. • Reduction in amyloid accumulation in the brain: Levels of Aβ42 in brain homogenates were assessed by ELISA.

[3] = tested on: rats infused intracerebroventricularly; experiment: Cognitive dysfunction in rats infused intracerebroventricularly with Aβ oligomers; assay type: in vivo, rat; details: rats infused icv with oligomers
Protocol: More complex systems provide support for 5 μM (0.9 μg/mL) as an effective local concentration of the scyllo-cyclohexanehexyl. […] The effectiveness of this concentration was confirmed in acute cognitive dysfunction study in rats. In the clinic, effective local concentrations of a scyllo-cyclohexanehexyl will need to be achieved following oral dosing. Three studies have examined the effective dose range of a scyllo-cyclohexanehexyl following oral dosing. […] In rats infused intracerebroventricularly (icy) with All oligomers, approximately 30 mg/kg/day (the lowest dose administered orally) provided effective alleviation of cognitive dysfunction. Therefore, considering 2 species, different animal ages and different endpoints, a dose level ranging between 3-30 mg/kg/day has consistently shown efficacy.

[4] = tested on: TgCRND8 mice
[5] = target: T1, Aβ42; experiment: TgCRND8 mice 2 month ad libitum treatment from 5 months: brain and plasma Aβ42 ELISA; assay type: in vivo; details: 2 month treatment ad libitum 10 mg/ml from 5 months of age
[6] = Orally administered tritiated-inositol uptake in plasma and brain (FIG. 16); assay type: in vivo
Protocol: FIG. 16. Bioavailability of scyllo- (solid line) and myo-inositol (dashed line) in plasma and brain, determined using orally administered tritiated-inositol uptake studies. […] Brain levels also rose rapidly and were maximal at 8 h and 32 h, respectively.

[7] = tested on: Aβ plaque burden; experiment: TgCRND8 mice 2 month ad libitum treatment from 5 months: Aβ plaque burden; assay type: in vivo; details: 2 months ad libitum from 5 months
[8] = target: T2, Aβ40 (Homo sapiens, UniProt P05067); experiment: TgCRND8 mice 2 month ad libitum treatment from 5 months: brain and plasma Aβ40 ELISA; assay type: in vivo; details: 2 month treatment ad libitum 10 mg/ml from 5 months of age
T2 construct: associated with reduced levels of insoluble Aβ40 and Aβ42 in the brain; from tissue; host or cells: brain homogenate (and plasma) of TgCRND8 transgenic mice
T2 sequence (P05067 672-711): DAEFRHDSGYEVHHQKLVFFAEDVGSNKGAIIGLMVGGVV

[9] = tested on: TgCRND8 mice; experiment: TgCRND8 mice therapeutic dosing (5-6 months): Morris Water Maze; assay type: in vivo
[10] = tested on: TgCRND8 mice; experiment: TgCRND8 mice therapeutic dosing (5-6 months): synaptic density; assay type: in vivo; details: therapeutic dosing regimen 5-6 months, p<0.001

Compound | increase of scyllo-cyclohexanehexyl level in CSF vs untreated [1] | increase of scyllo-cyclohexanehexyl level in brain vs untreated [1] | dose showing maximum effectiveness at reducing plaques [2] | dose providing effective alleviation of cognitive dysfunction (lowest dose administered orally) [3] | twice-daily oral gavage vs one daily dose at equivalent doses, reversing cognitive deficits ([4]; TgCRND8 mice, dose finding studies) | adverse effects in the mice ([4]; mouse, in vivo) | Plasma Aβ levels Aβ42 [5] | time of maximal brain levels [6] | time of peak plasma levels post administration [6] | growth of plaques by size distribution [7] | percent brain area covered in plaques ([7]; P=0.0001) | Plasma Aβ levels Aβ40 [8] | swim path lengths vs non-transgenic littermates ([9]; TgCRND8 mice treated 28 days from 5 months, p=0.11) | behavioural performance (swim path length in the Morris Water Maze) vs untreated controls ([9]; TgCRND8 mice, 28 days from 5 months, drinking water 10 mg/ml (approx. 900 mg/kg over 24 hours), p=0.01) | synaptic density [10]
scyllo-inositol [AZD-103] | 10 fold | 7 fold | 30 mg/kg/day | approximately 30 mg/kg/day | – | – | – | – | – | – | – | – | – | – | –
OC1C(O)C(O)C(O)C(O)C1O (stereo not drawn) [AZD-103, scyllo-inositol] | – | – | – | – | more effective than one daily dose | no evidence of adverse effects | 3035 ± 236 pg/mL | 32 h | 12 h | effective at inhibiting the growth of plaques of all sizes | significantly reduced | 4507 ± 207 pg/mL | indistinguishable from non-transgenic littermates | significantly better behavioural performance | increased synaptic density
